The record followed here is US20100190645A1 (priority 2007, published 2010).

Common to all, as to assay type: cell-based
One experiment concerns Pyricularia oryzae. The conditions noted are these: single active compound, 0.3 ppm, 4 days incubation, optical density.
The test system of a further experiment is Ustilago avenae. The experiment can be described thus: Ustilago avenae test (in vitro)/microtest. Conditions: single active compound, 4 days incubation, optical density. How it is done: Ustilago avenae—Test (In Vitro)/Microtest
(§1) The microtest was performed in liquid medium with potato-dextrose broth (PDB) using microtitre plates.
(§2) The active compound is applied as the technical active substance dissolved in methanol.
A spore suspension of Ustilago avenae was used for inoculation. After 4 days of incubation by darkness under shaking (10 Hrz), the optical density in each cavity was evaluated with the aid of a microtitre plate reader.
(§3) 0% means an efficacy which corresponds to that of the control, while an efficacy of 100% means that no fungal growth is observed.

The test system of the next experiment is Phytophthora cryptogea. As to the kind of experiment: Phytophthora cryptogea test (in vitro)/microtest. The conditions noted are these: single active compound, 0.3 ppm, 3 days incubation, optical density. Here is the method: Phytophthora cryptogea—Test (In Vitro)/Microtest
as §1, §2
A mycelium suspension of Phytophthora ayptogea was used for inoculation. After 3 days of incubation by darkness under shaking (10 Hrz), the optical density in each cavity was evaluated with the aid of a microtitre plate reader.
as §3

Each structure is given as a SMILES string.

In the case of `COc1ccc(-c2coc3cc(O)ccc3c2=O)cc1` [Formononetin], the Efficacy in % was 11% with Pyricularia oryzae; 13% in the experiment with Ustilago avenae (Example B, 0.01 ppm); 17% in the experiment with Ustilago avenae (Example D, 0.1 ppm); 14% with Phytophthora cryptogea.
In the case of `CC(C)(C)C(O)(CCc1ccc(Cl)cc1)Cn1cncn1` (centres unmarked) [Tebuconazole, tebuconazole], the Efficacy in % in the experiment with Ustilago avenae (Example D, 0.1 ppm) is recorded as 96%.
For `Cc1nn(C)c(F)c1C(=O)Nc1ccccc1C(C)CC(C)C` (centres unmarked) [BYF 14182], the Efficacy in % in the experiment with Ustilago avenae (Example B, 0.01 ppm) is on record as 95%.
In the experiment on Pyricularia oryzae, `CO/N=C(/C(=O)OC)c1ccccc1CO/N=C(\C)c1cccc(C(F)(F)F)c1` [Trifloxystrobin, trifloxystrobin] registered an Efficacy in % of 56%.
Turning to `COCC(=O)N(c1c(C)cccc1C)C(C)C(=O)OC` (centres unmarked) [Metalaxyl, metalaxyl], the Efficacy in % with Phytophthora cryptogea is 48%.
